Square brackets hold non-standard residues; d marks the D form. Peptide text beside a SMILES is read from it. * marks the point of attachment. Propanoyl(3-(3,4-F2Ph)) = O=C(CCc1ccc(F)c(F)c1)*; Propanoyl(3-(4-F-phenyl)) = O=C(CCc1ccc(F)cc1)*; dTrp(5-F) = N[C@H](Cc1c[nH]c2ccc(F)cc12)C(=O)O; Hydrocinnamoyl(2,4-F2) = O=C(CCc1ccc(F)cc1F)*; Propanoyl(3-(4-Cl-Ph)) = O=C(CCc1ccc(Cl)cc1)*; dPhe(4-Cl) = N[C@H](Cc1ccc(Cl)cc1)C(=O)O; 1Nal = N[C@@H](Cc1cccc2ccccc12)C(=O)O; d1Nal = N[C@H](Cc1cccc2ccccc12)C(=O)O; NMeY = CN[C@@H](Cc1ccc(O)cc1)C(=O)O; d2Thi = N[C@H](Cc1cccs1)C(=O)O; Nicotinoyl = O=C(c1cccnc1)*; X9 = O=C(CCc1ccc(Br)cc1)*; X4 = O=C(CCc1cccc(F)c1)*
Target: T1, LHRH receptors (Rattus norvegicus, UniProt P30969)
T1 construct: Pituitary membranes containing LHRH receptors are prepared in batches from quick-frozen rat pituitaries; tissue Hilltop Labs; host or cells: rat pituitary membranes
T1 sequence (P30969 1-327): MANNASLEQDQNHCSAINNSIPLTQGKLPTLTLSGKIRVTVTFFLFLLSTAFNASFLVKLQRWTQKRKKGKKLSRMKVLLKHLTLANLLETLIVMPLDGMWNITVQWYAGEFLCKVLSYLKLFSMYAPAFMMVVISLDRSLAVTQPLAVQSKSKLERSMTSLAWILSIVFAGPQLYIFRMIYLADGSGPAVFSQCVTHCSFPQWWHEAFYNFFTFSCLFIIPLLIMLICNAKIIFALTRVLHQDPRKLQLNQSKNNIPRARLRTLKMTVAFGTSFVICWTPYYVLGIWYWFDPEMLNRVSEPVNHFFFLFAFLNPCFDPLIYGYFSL
Assay: Receptor Binding (radioligand receptor binding assay)
Conditions: table 4; rat pituitary membranes, radioligand 50 pM, 2 hours at 4° C.; read-out: Receptor Binding pkI (converted)

| Structure (SMILES) | Ki [pM] |
| --- | --- |
| CCNC(=O)[C@@H]1CCCN1C(=O)[C@H](CCCNC(=N)N)NC(=O)[C@H](CC(C)C)NC(=O)[C@@H](Cc1c[nH]c2ccccc12)NC(=O)[C@H](Cc1ccc(O)cc1)NC(=O)[C@H](CO)NC(=O)[C@@H](Cc1c[nH]c2ccc(F)cc12)NC(=O)CCc1ccc(F)cc1 [Compound 143, (3-9)[N-(3-(4-Fluorophenyl)propionyl)-D -5-F-Trp^3 -D-Trp^6 -Pro^9 NHEt]LHRH] ({Propanoyl(3-(4-F-phenyl))}-[dTrp(5-F)]SY[dW]LRP-NHEt) | 49 |
| CCNC(=O)[C@@H]1CCCN1C(=O)[C@H](CCCN=C(N)N)NC(=O)[C@H](CC(C)C)NC(=O)[C@@H](Cc1c[nH]c2ccccc12)NC(=O)[C@H](Cc1ccc(O)cc1)NC(=O)[C@H](CO)NC(=O)[C@H](Cc1cccc2ccccc12)NC(=O)CCc1ccc(F)cc1 [Compound 144, (3-9)[N-(3-(4-Fluorophenyl)propionyl) -1-Nal^3 -D-Trp^6 -Pro^9 NHEt]LHRH] ({Propanoyl(3-(4-F-phenyl))}-[1Nal]SY[dW]LRP-NHEt) | 25.7 |
| CCNC(=O)[C@@H]1CCCN1C(=O)[C@H](CCCN=C(N)N)NC(=O)[C@H](CC(C)C)NC(=O)[C@@H](Cc1c[nH]c2ccccc12)NC(=O)[C@H](Cc1ccc(O)cc1)NC(=O)[C@H](CO)NC(=O)[C@@H](Cc1cccc2ccccc12)NC(=O)CCc1ccc(F)cc1 [Compound 145, (3-9)[N-(3-(4-Fluorophenyl)propionyl) -D-1-Nal^3 -D-Trp^6 -Pro^9 NHEt]LHRH] ({Propanoyl(3-(4-F-phenyl))}-[d1Nal]SY[dW]LRP-NHEt) | 25.1 |
| CCNC(=O)[C@@H]1CCCN1C(=O)[C@H](CCCN=C(N)N)NC(=O)[C@H](CC(C)C)NC(=O)[C@@H](Cc1c[nH]c2ccccc12)NC(=O)[C@H](Cc1ccc(O)cc1)NC(=O)[C@H](CO)NC(=O)[C@H]1CCCN1C(=O)CCc1ccc(F)cc1 [Compound 147, (3-9)[N-(3-(4-Fluorophenyl)propionyl) -D-Pro^3 -D-Trp^6 -Pro^9 NHEt]LHRH] ({Propanoyl(3-(4-F-phenyl))}-[dP]SY[dW]LRP-NHEt) | 20 |
| CCNC(=O)[C@@H]1CCCN1C(=O)[C@H](CCCNC(=N)N)NC(=O)[C@H](CC(C)C)NC(=O)[C@@H](Cc1c[nH]c2ccccc12)NC(=O)[C@H](Cc1ccc(O)cc1)NC(=O)[C@H](CO)NC(=O)[C@@H]1CCCN1C(=O)CCc1ccc(F)cc1 [Compound 148, (3-9)[N-(3-(4-Fluorophenyl)propionyl) -Pro^3 -D-Trp^6 -Pro^9 NHEt]LHRH] ({Propanoyl(3-(4-F-phenyl))}-PSY[dW]LRP-NHEt) | 55 |
| CCNC(=O)[C@@H]1CCCN1C(=O)[C@H](CCCNC(=N)N)NC(=O)[C@H](CC(C)C)NC(=O)[C@@H](Cc1ccc(Cl)cc1)NC(=O)[C@H](Cc1ccc(O)cc1)NC(=O)[C@H](CO)NC(=O)[C@@H](Cc1c[nH]c2ccccc12)NC(=O)CCc1ccc(F)cc1 [Compound 149, (3-9)[N-(3-(4-Fluorophenyl)propionyl) -D-Trp3-D-4-Cl-Phe^6 -Pro^9 NHEt]LHRH] ({Propanoyl(3-(4-F-phenyl))}-[dW]SY[dPhe(4-Cl)]LRP-NHEt) | 29.5 |
| CCNC(=O)[C@@H]1CCCN1C(=O)[C@H](CCCN=C(N)N)NC(=O)[C@H](CC(C)C)NC(=O)[C@@H](Cc1ccc(O)cc1)NC(=O)[C@H](Cc1ccc(O)cc1)NC(=O)[C@H](CO)NC(=O)[C@@H](Cc1c[nH]c2ccccc12)NC(=O)CCc1ccc(F)cc1 [Compound 150, (3-9)[N-(3-(4-Fluorophenyl)propionyl) -D-Trp^3 -D-Tyr^6 -Pro^9 NHEt]LHRH] ({Propanoyl(3-(4-F-phenyl))}-[dW]SY[dY]LRP-NHEt) | 10.2 |
| CCNC(=O)[C@@H]1CCCN1C(=O)[C@H](CCCN=C(N)N)NC(=O)[C@H](CC(C)C)NC(=O)[C@@H](Cc1c[nH]c2ccccc12)NC(=O)[C@H](Cc1ccc(O)cc1)NC(=O)[C@H](CO)NC(=O)[C@@H](Cc1c[nH]c2ccccc12)NC(=O)CCc1ccc(F)c(F)c1 [Compound 151, (3-9)[N-(3-(3,4-diFluorophenyl)propionyl) -D-Trp^3,6 -Pro^9 NHEt]LHRH] ({Propanoyl(3-(3,4-F2Ph))}-[dW]SY[dW]LRP-NHEt) | 28.2 |
| CCNC(=O)[C@@H]1CCCN1C(=O)[C@H](CCCN=C(N)N)NC(=O)[C@H](CC(C)C)NC(=O)[C@@H](CCCCNC(=O)c1cccnc1)NC(=O)[C@H](Cc1ccc(O)cc1)N(C)C(=O)[C@H](CO)NC(=O)[C@@H](Cc1c[nH]c2ccccc12)NC(=O)CCc1ccc(F)cc1F [Compound 152, (3-9)[N-(3-(2,4-diFluorophenyl)propionyl) -D-Trp^3 -NMeTyr^5 -D-Lys^6 (N-epsilon-nicotinyl)-Pro^9 NHEt]LHRH] ({Hydrocinnamoyl(2,4-F2)}-[dW]S[NMeY][dK](Nicotinoyl)LRP-NHEt) | 21.4 |
| CCNC(=O)[C@@H]1CCCN1C(=O)[C@H](CCCN=C(N)N)NC(=O)[C@H](CC(C)C)NC(=O)[C@@H](CCCCNC(=O)c1cccnc1)NC(=O)[C@H](Cc1ccc(O)cc1)N(C)C(=O)[C@H](CO)NC(=O)[C@@H](Cc1c[nH]c2ccccc12)NC(=O)CCc1cccc(F)c1 [Compound 153, (3-9)[N-(3-(3-Fluorophenyl)propionyl) -D-Trp^3 -NMeTyr^5 -D-Lys^6 (N-epsilon-nicotinyl)-Pro ^9 NHEt]LHRH] (X4-[dW]S[NMeY][dK](Nicotinoyl)LRP-NHEt) | 24 |
| CCNC(=O)[C@@H]1CCCN1C(=O)[C@H](CCCN=C(N)N)NC(=O)[C@H](CC(C)C)NC(=O)[C@@H](CCCCNC(=O)c1cccnc1)NC(=O)[C@H](Cc1ccc(O)cc1)N(C)C(=O)[C@H](CO)NC(=O)[C@@H](Cc1c[nH]c2ccccc12)NC(=O)CCc1ccc(Cl)cc1 [Compound 154, (3-9)[N-(3-(4-Chlorophenyl)propionyl) -D-Trp^3 -NMeTyr^5 -DLys^6 (N-epsilon-nicotinyl)-Pro ^9 NHEt]LHRH] ({Propanoyl(3-(4-Cl-Ph))}-[dW]S[NMeY][dK](Nicotinoyl)LRP-NHEt) | 31.6 |
| CCNC(=O)[C@@H]1CCCN1C(=O)[C@H](CCCN=C(N)N)NC(=O)[C@H](CC(C)C)NC(=O)[C@@H](Cc1c[nH]c2ccccc12)NC(=O)[C@H](Cc1ccc(O)cc1)N(C)C(=O)[C@H](CO)NC(=O)[C@@H](Cc1c[nH]c2ccccc12)NC(=O)CCc1ccc(F)cc1F [Compound 155, (3-9)[N-(3-(2,4-diFluorophenyl)propionyl) -D-Trp^3,6 -NMeTyr^5 -Pro^9 NHEt]LHRH] ({Hydrocinnamoyl(2,4-F2)}-[dW]S[NMeY][dW]LRP-NHEt) | 49 |
| CCNC(=O)[C@@H]1CCCN1C(=O)[C@H](CCCN=C(N)N)NC(=O)[C@H](CC(C)C)NC(=O)[C@@H](Cc1c[nH]c2ccccc12)NC(=O)[C@H](Cc1ccc(O)cc1)N(C)C(=O)[C@H](CO)NC(=O)[C@@H](Cc1c[nH]c2ccccc12)NC(=O)CCc1ccc(Cl)cc1 [Compound 156, (3-9)[N-(3-(4-Chlorophenyl)propionyl) -D-Trp^3,6 -NMeTyr^5 -Pro^9 NHEt]LHRH] ({Propanoyl(3-(4-Cl-Ph))}-[dW]S[NMeY][dW]LRP-NHEt) | 69.2 |
| CCNC(=O)[C@@H]1CCCN1C(=O)[C@H](CCCNC(=N)N)NC(=O)[C@H](CC(C)C)NC(=O)[C@@H](Cc1c[nH]c2ccccc12)NC(=O)[C@H](Cc1ccc(O)cc1)N(C)C(=O)[C@H](CO)NC(=O)[C@@H](Cc1cccc2ccccc12)NC(=O)CCc1ccc(F)cc1 [Compound 157, (3-9)[N-(3-(4-Fluorophenyl)propionyl)-D -1-Nal^3 -NMeTyr^5 -D-Trp^6 -Pro^9 NHEt]LHRH] ({Propanoyl(3-(4-F-phenyl))}-[d1Nal]S[NMeY][dW]LRP-NHEt) | 47.9 |
| CCNC(=O)[C@@H]1CCCN1C(=O)[C@H](CCCNC(=N)N)NC(=O)[C@H](CC(C)C)NC(=O)[C@@H](Cc1c[nH]c2ccccc12)NC(=O)[C@H](Cc1ccc(O)cc1)N(C)C(=O)[C@H](CO)NC(=O)[C@H](Cc1cccc2ccccc12)NC(=O)CCc1ccc(F)cc1 [Compound 158, (3-9)[N-(3-(4-Fluorophenyl)propionyl) -1-Nal^3 -NMeTyr^5 -DTrp^6 -Pro^9 NHEt]LHRH] ({Propanoyl(3-(4-F-phenyl))}-[1Nal]S[NMeY][dW]LRP-NHEt) | 17.4 |
| CCNC(=O)[C@@H]1CCCN1C(=O)[C@H](CCCNC(=N)N)NC(=O)[C@H](CC(C)C)NC(=O)[C@@H](Cc1c[nH]c2ccccc12)NC(=O)[C@H](Cc1ccc(O)cc1)N(C)C(=O)[C@H](CO)NC(=O)[C@@H](Cc1cccc2ccccc12)NC(=O)CCc1ccc(Br)cc1 [Compound 159, (3-9)[N-(3-(4-Bromophenyl)propionyl)-D -1-Nal^3 -NMeTyr^5 -DTrp^6 -Pro^9 NHEt]LHRH] (X9-[d1Nal]S[NMeY][dW]LRP-NHEt) | 56.2 |
| CCNC(=O)[C@@H]1CCCN1C(=O)[C@H](CCCNC(=N)N)NC(=O)[C@H](CC(C)C)NC(=O)[C@@H](Cc1c[nH]c2ccccc12)NC(=O)[C@H](Cc1ccc(O)cc1)N(C)C(=O)[C@H](CO)NC(=O)[C@H](Cc1cccc2ccccc12)NC(=O)CCc1ccc(Br)cc1 [Compound 160, (3-9)[N-(3-(4-Bromophenyl)propionyl) -1-Nal^3 -NMeTyr^5 -DTrp^6 -Pro^9 NHEt]LHRH] (X9-[1Nal]S[NMeY][dW]LRP-NHEt) | 110 |
| CC(C)C[C@H](NC(=O)[C@@H](CCCCNC(=O)c1cccnc1)NC(=O)[C@H](Cc1ccc(O)cc1)N(C)C(=O)[C@H](CO)NC(=O)[C@@H](Cc1cccs1)NC(=O)CCc1ccc(F)cc1)C(=O)N[C@@H](CCCNC(=N)N)C(=O)N1CCC[C@H]1C(=O)N[C@H](C)C(N)=O [Compound 161, N-[3-(4-Fluorophenyl)propionyl]-D-Thia-Ser-NMeTyr-D -Lys(N-epsilon-nicotinyl)-Leu-Arg-Pro-D-AlaNH2] ({Propanoyl(3-(4-F-phenyl))}-[d2Thi]S[NMeY][dK](Nicotinoyl)LRP[dA]-NH2) | 15.1 |
